One test deals with HLA B*5101 (Homo sapiens, UniProt P01889, A329T/A93T/A95T/C349S/D138N/D201E/D98Y/E187L/E204Q/E69T/G107R/I218V/K202T/L105A/L119W/N104I/Q94N/R106L/R155S/R180L/S101N/S121T/S35A/S48A/V306I/V36M/Y195H/Y91F).
Assay: not given
The format is binding.
Sequence of H-2 K^k (P01887 21-119): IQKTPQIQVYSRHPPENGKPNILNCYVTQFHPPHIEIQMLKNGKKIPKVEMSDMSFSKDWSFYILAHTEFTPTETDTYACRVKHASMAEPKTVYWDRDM
Sequence of H-2 K^k (P04223 22-369): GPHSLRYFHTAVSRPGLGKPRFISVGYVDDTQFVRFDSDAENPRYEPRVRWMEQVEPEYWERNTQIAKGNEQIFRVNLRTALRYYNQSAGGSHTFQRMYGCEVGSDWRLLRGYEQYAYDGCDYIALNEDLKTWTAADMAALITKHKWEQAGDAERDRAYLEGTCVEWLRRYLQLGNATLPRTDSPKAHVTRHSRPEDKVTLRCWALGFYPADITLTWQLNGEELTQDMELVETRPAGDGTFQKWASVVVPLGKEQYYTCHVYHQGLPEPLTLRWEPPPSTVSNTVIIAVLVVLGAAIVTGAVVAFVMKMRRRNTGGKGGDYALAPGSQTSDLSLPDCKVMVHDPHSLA
Sequence of H-2 K^d (P01887 21-119): as the sequence (P01887 21-119) above
Sequence of H-2 K^d (P01902 22-368): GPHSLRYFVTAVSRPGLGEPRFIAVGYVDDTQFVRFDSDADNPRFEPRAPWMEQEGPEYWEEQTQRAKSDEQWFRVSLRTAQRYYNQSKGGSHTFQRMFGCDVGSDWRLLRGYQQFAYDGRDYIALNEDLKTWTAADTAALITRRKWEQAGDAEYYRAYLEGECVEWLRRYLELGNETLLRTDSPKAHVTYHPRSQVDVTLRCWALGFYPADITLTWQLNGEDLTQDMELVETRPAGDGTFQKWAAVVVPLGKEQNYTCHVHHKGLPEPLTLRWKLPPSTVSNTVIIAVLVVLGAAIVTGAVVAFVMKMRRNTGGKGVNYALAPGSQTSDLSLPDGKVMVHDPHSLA
As to XXXPXXXXX [3064.0073], the “Normalized average relative binding affinity(ARB)” value worked out at 0.55.
Same read-out and setting: to XXXQXXXXX [3064.0074] belongs 0.57; to XXXRXXXXX [3064.0075], 0.40; to XXXSXXXXX [3064.0076], 0.92.
On the same count and under the same terms, to XXXTXXXXX [3064.0077] belongs 0.77; to XXXVXXXXX [3064.0078], 0.67.

The target of the next test is HLA B*3501 (Homo sapiens, UniProt P01889, A329T/A93T/A95T/C349S/D201E/D98Y/E176V/E187L/E204Q/E69T/I218V/K202T/L119I/Q94N/R155S/R180L/S121R/S35A/S48A/T118I/V127L/V306I/V36M/Y140S/Y91F).
Assay: not given
The format is binding.
In the case of XXXPXXXXX [3064.0073], the “Normalized average relative binding affinity(ARB)” value came out at 0.11.
Same read-out and setting: to XXXQXXXXX [3064.0074] belongs 0.088; to XXXRXXXXX [3064.0075], 0.059.
Same read-out and setting: to XXXSXXXXX [3064.0076] belongs 0.090.
Still for that read-out and setting: for XXXTXXXXX [3064.0077] the value was 0.54; for XXXVXXXXX [3064.0078], 0.17.

Another test has as its target HLA B*1503 (Homo sapiens, UniProt P01889, A329T/A93T/A95T/C349S/D201E/D98Y/E187L/E204Q/K202T/N87E/Q94N/R155S/R180L/S121R/S35A/V306I/V36M/Y140S/Y91S). As to the kind of experiment: biochemical. In kind it is binding.
XXXPXXXXX [3064.0073]: the “Normalized average relative binding affinity(ARB)” value came to 0.67.
For the sequence XXXQXXXXX [3064.0074], the “Normalized average relative binding affinity(ARB)” value worked out at 0.83.
The same measure, in the same setting: for XXXRXXXXX [3064.0075] the value was 0.50; for XXXSXXXXX [3064.0076], 0.78; for XXXTXXXXX [3064.0077], 0.41.
On the same count and under the same terms, to XXXVXXXXX [3064.0078] belongs 0.64.

The target in another test is HLA A*6802 (Homo sapiens, UniProt P04439, A269V/D140Y/D185E/E176V/E277Q/E87N/F33Y/G231S/I121R/I166T/I218V/L180W/L300P/L318F/N151K/P208A/P217A/Q86R/R138H/R169H/S129P/T345S/V36M).
Assay: not given
The format is binding.
As to XXXPXXXXX [3064.0073], the “Normalized average relative binding affinity(ARB)” value came out at 0.37.
On the same count and under the same terms, to XXXQXXXXX [3064.0074] belongs 0.18; to XXXRXXXXX [3064.0075], 0.057; to XXXSXXXXX [3064.0076], 1.0.
On the same count and under the same terms, to XXXTXXXXX [3064.0077] belongs 0.20; to XXXVXXXXX [3064.0078], 0.15.

The target of the next test is HLA A*3201 (Homo sapiens, UniProt P04439, A270S/D101S/D185E/E176V/E277Q/F133L/G103R/G107R/G231S/H175R/I121M/I218V/I322F/K168Q/L105A/L300P/L318F/M331R/P208A/P217A/Q94H/R106L/R138Q/S129P/T104I/T323A/T345S/V100E/V321M/V358M). As to the kind of experiment: biochemical. In kind it is binding.
Take XXXPXXXXX [3064.0073]: the “Normalized average relative binding affinity(ARB)” value was found to be 0.095.
With XXXQXXXXX [3064.0074], the “Normalized average relative binding affinity(ARB)” value came to 0.32.
Same read-out and setting: to XXXRXXXXX [3064.0075] belongs 0.22.
Same read-out and setting: to XXXSXXXXX [3064.0076] belongs 0.26.
For the sequence XXXTXXXXX [3064.0077], the “Normalized average relative binding affinity(ARB)” value is 0.31.
Still for that read-out and setting: to XXXVXXXXX [3064.0078] belongs 0.27.

Another test deals with HLA B*5802 (Homo sapiens, UniProt P01889, A329T/C349S/D201E/D98Y/E176V/E187L/E204Q/E69T/G107R/I218V/I90N/K202T/L105A/N104I/N87E/Q89R/Q94S/R106L/R155S/R180L/R86G/S101N/S121W/S35A/S48A/V127L/V306I/V36M/Y140S/Y91M).
Assay: not given
The format is binding.
For the sequence XXXPXXXXX [3064.0073], the “Normalized average relative binding affinity(ARB)” value amounted to 0.50.
Same read-out and setting: for XXXQXXXXX [3064.0074] the value was 0.31; for XXXRXXXXX [3064.0075], 0.96.
On the same count and under the same terms, for XXXSXXXXX [3064.0076] the value was 1.0.
In the case of XXXTXXXXX [3064.0077], the “Normalized average relative binding affinity(ARB)” value is 0.74.
As for XXXVXXXXX [3064.0078], the “Normalized average relative binding affinity(ARB)” value amounted to 0.53.

The target of a further test is HLA A*3001 (Homo sapiens, UniProt P04439, D140H/D185E/E176W/F33S/G80R/H175R/K168Q/R138E/R41S). As to the kind of experiment: biochemical. In kind it is binding.
For XXXPXXXXX [3064.0073], the “Normalized average relative binding affinity(ARB)” value was found to be 0.59.
Same read-out and setting: for XXXQXXXXX [3064.0074] the value was 0.65; for XXXRXXXXX [3064.0075], 0.52; for XXXSXXXXX [3064.0076], 0.76.
The same measure, in the same setting: to XXXTXXXXX [3064.0077] belongs 0.44; to XXXVXXXXX [3064.0078], 0.22.

The target of a further test is H-2 D^b (Mus musculus, UniProt P01899).
Sequence of H-2 D^b (P01887 21-119): as the sequence (P01887 21-119) above
Sequence of H-2 D^b (P01899 25-362): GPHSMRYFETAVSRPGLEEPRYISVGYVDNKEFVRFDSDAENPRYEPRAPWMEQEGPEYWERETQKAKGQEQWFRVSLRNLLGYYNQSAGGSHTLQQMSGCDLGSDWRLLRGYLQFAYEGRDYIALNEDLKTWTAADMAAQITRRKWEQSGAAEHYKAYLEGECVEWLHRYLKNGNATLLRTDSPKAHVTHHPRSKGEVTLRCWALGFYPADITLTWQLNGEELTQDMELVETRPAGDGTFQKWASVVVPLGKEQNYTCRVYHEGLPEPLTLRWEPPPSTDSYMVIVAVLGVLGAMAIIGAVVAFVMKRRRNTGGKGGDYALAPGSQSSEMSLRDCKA
Assay: not given
The format is binding.
As to XXXPXXXXX [3064.0073], the “Normalized average relative binding affinity(ARB)” value is listed as 0.15.
The same measure, in the same setting: for XXXQXXXXX [3064.0074] the value was 0.61.
Still for that read-out and setting: for XXXRXXXXX [3064.0075] the value was 0.63; for XXXSXXXXX [3064.0076], 0.83; for XXXTXXXXX [3064.0077], 0.58.
On the same count and under the same terms, to XXXVXXXXX [3064.0078] belongs 0.87.

A further test addresses HLA B*5801 (Homo sapiens, UniProt P01889, A329T/C349S/D201E/D98Y/E176V/E187L/E204Q/E69T/G107R/I218V/I90N/K202T/L105A/L119I/N104I/N87E/Q89R/Q94S/R106L/R155S/R180L/R86G/S101N/S121R/S35A/S48A/T118I/V127L/V306I/V36M/Y140S/Y91M).
Assay: not given
The format is binding.
As for XXXPXXXXX [3064.0073], the “Normalized average relative binding affinity(ARB)” value is listed as 1.0.
Take XXXQXXXXX [3064.0074]: the “Normalized average relative binding affinity(ARB)” value worked out at 0.46.
The same measure, in the same setting: to XXXRXXXXX [3064.0075] belongs 0.67.
XXXSXXXXX [3064.0076]: the “Normalized average relative binding affinity(ARB)” value was 0.74.
Still for that read-out and setting: for XXXTXXXXX [3064.0077] the value was 0.27; for XXXVXXXXX [3064.0078], 0.33.

Another test addresses H-2 K^k (Mus musculus, UniProt P04223).
Assay: not given
In kind it is binding.
With XXXPXXXXX [3064.0073], the “Normalized average relative binding affinity(ARB)” value stood at 0.41.
On the same count and under the same terms, to XXXQXXXXX [3064.0074] belongs 0.63.
As for XXXRXXXXX [3064.0075], the “Normalized average relative binding affinity(ARB)” value is listed as 0.34.
On the same count and under the same terms, for XXXSXXXXX [3064.0076] the value was 0.28.
Consider XXXTXXXXX [3064.0077], for which the “Normalized average relative binding affinity(ARB)” value is recorded as 0.19.
Still for that read-out and setting: to XXXVXXXXX [3064.0078] belongs 0.49.

Another test addresses H-2 K^d (Mus musculus, UniProt P01902).
Assay: not given
The format is binding.
For XXXPXXXXX [3064.0073], the “Normalized average relative binding affinity(ARB)” value came to 0.48.
Still for that read-out and setting: to XXXQXXXXX [3064.0074] belongs 0.42; to XXXRXXXXX [3064.0075], 0.20.
Same read-out and setting: to XXXSXXXXX [3064.0076] belongs 0.28.
On the same count and under the same terms, for XXXTXXXXX [3064.0077] the value was 0.21; for XXXVXXXXX [3064.0078], 0.19.

The target in the next test is HLA B*5301 (Homo sapiens, UniProt P01889, A329T/A93T/A95T/C349S/D201E/D98Y/E176V/E187L/E204Q/E69T/G107R/I218V/K202T/L105A/L119I/N104I/Q94N/R106L/R155S/R180L/S101N/S121R/S35A/S48A/T118I/V127L/V306I/V36M/Y140S/Y91F).
Assay: not given
In kind it is binding.
XXXPXXXXX [3064.0073]: the “Normalized average relative binding affinity(ARB)” value is listed as 0.023.
In the case of XXXQXXXXX [3064.0074], the “Normalized average relative binding affinity(ARB)” value amounted to 0.26.
Same read-out and setting: to XXXRXXXXX [3064.0075] belongs 0.11; to XXXSXXXXX [3064.0076], 0.44.
For the sequence XXXTXXXXX [3064.0077], the “Normalized average relative binding affinity(ARB)” value turned out to be 0.25.
Same read-out and setting: for XXXVXXXXX [3064.0078] the value was 0.70.

For another test, the target named is HLA B*1501 (Homo sapiens, UniProt P01889, A329T/A93T/A95T/C349S/D201E/D98Y/E187L/E204Q/E69M/E70A/K202T/N87E/Q94N/R155S/R180W/S121R/S35A/S48A/V306I/V36M/Y140S/Y91S). As to the kind of experiment: biochemical. The format is binding.
Consider XXXPXXXXX [3064.0073], for which the “Normalized average relative binding affinity(ARB)” value amounted to 0.22.
On the same count and under the same terms, to XXXQXXXXX [3064.0074] belongs 0.96.
Still for that read-out and setting: for XXXRXXXXX [3064.0075] the value was 0.28; for XXXSXXXXX [3064.0076], 1.0.
On the same count and under the same terms, for XXXTXXXXX [3064.0077] the value was 0.39.
As to XXXVXXXXX [3064.0078], the “Normalized average relative binding affinity(ARB)” value amounted to 0.52.

In the next test the target is HLA B*0801 (Homo sapiens, UniProt P01889, A93T/A95T/D138N/E176V/E187T/K202T/Q94N/R180D/S35A/V36M/Y33D/Y91F). The test is described as follows: biochemical. The format is binding.
Take XXXPXXXXX [3064.0073]: the “Normalized average relative binding affinity(ARB)” value was determined as 0.34.
Same read-out and setting: for XXXQXXXXX [3064.0074] the value was 0.90; for XXXRXXXXX [3064.0075], 0.86; for XXXSXXXXX [3064.0076], 0.48.
Still for that read-out and setting: for XXXTXXXXX [3064.0077] the value was 0.52.
With XXXVXXXXX [3064.0078], the “Normalized average relative binding affinity(ARB)” value worked out at 0.47.

In another test the target is HLA B*5401 (Homo sapiens, UniProt P01889, A329T/C349S/D138N/D201E/E176V/E187T/E204Q/E69G/I76V/K202T/L119W/R155S/R180L/S121T/S35A/S48A/V127L/V306I/V36M/Y140L).
Assay: not given
In kind it is binding.
Regarding XXXPXXXXX [3064.0073], the “Normalized average relative binding affinity(ARB)” value was 0.13.
On the same count and under the same terms, to XXXQXXXXX [3064.0074] belongs 0.093; to XXXRXXXXX [3064.0075], 0.069.
On the same count and under the same terms, for XXXSXXXXX [3064.0076] the value was 0.14; for XXXTXXXXX [3064.0077], 0.61.
Still for that read-out and setting: to XXXVXXXXX [3064.0078] belongs 1.00.

The target in a further test is H-2 D^d (Mus musculus, UniProt P01900).
Sequence of H-2 D^d (P01900 whole entry, looked up): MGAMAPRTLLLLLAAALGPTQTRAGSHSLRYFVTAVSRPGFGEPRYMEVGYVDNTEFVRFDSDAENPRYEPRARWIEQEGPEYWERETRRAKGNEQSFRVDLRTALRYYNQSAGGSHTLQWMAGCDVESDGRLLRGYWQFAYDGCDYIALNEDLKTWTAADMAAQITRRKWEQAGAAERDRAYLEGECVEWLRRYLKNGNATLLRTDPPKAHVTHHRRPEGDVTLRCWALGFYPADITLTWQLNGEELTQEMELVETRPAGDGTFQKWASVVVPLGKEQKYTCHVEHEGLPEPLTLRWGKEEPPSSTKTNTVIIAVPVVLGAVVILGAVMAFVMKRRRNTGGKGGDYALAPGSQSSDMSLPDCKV
Assay: not given
In kind it is binding.
Regarding XXXPXXXXX [3064.0073], the “Normalized average relative binding affinity(ARB)” value is on record as 0.15.
Still for that read-out and setting: for XXXQXXXXX [3064.0074] the value was 0.49; for XXXRXXXXX [3064.0075], 0.62; for XXXSXXXXX [3064.0076], 0.58.
In the case of XXXTXXXXX [3064.0077], the “Normalized average relative binding affinity(ARB)” value stood at 0.66.
Still for that read-out and setting: to XXXVXXXXX [3064.0078] belongs 0.48.

For the origin of these results see publication PMC2248166, “Quantitative peptide binding motifs for 19 human and mouse MHC class I molecules derived using positional scanning combinatorial peptide libraries” (Immunome Research, 2008).
